Laboratory results reported in paper PMC8482766 (Journal of Medicinal Chemistry, 2021).
In brackets after ≈: the same amount, converted by molar mass. Read-outs that look alike come from different tables or passages of the source.

What was measured:
[1] = tested on: KINOMEscan panel (DiscoverX) of >400 wild-type human kinases; type: binding; conditions: inhibitor concentration = 1 μM
[2] = tested on: Madin–Darby canine kidney cells transfected with the human MDR1 gene (MDCK-MDR1); test: MDCK-MDR1 permeability and P-gp efflux assay; type: in vitro ADME; conditions: MDCK-MDR1, conclusion in words
P-gp (human MDR1) = test: MDCK-MDR1 permeability and P-gp efflux assay; type: in vitro ADME, canine; conditions: dog, MDCK-MDR1
[3] = In vivo pharmacokinetic study, i.v. in Sprague–Dawley rats; conditions: 1 mg/kg i.v.
DYRK1A [4] = molecular target: T1, DYRK1A (Homo sapiens, UniProt Q13627); type: binding; conditions: for LE: LE = 1.4(pIC50)/nonhydrogen atoms; for LLE: LLE = pIC50 – clog P
[5] = tested on: in-house panel of 48 representative kinases; type: binding
[6] = Thermodynamic solubility at pH 6.8; type: physicochemical
DYRK1A [7] = molecular target: T1, DYRK1A; type: binding; conditions: SPR, dissociation rate (off-rate)
[8] = relative to reference compound/matched-molecular pair 11

Row | Structure (SMILES) | fold reduction in DYRK1A binding affinity (DYRK1A [4]; [8]) | S score (35) [1] | further results
1 | CN(C)c1nccc(-c2cnn3ncccc23)n1 [Compound 11, N,N-Dimethyl-4-pyrazolo[1,5-b]pyridazin-3-yl-pyrimidin-2-amine] |  | 0.027 | P-gp substrate [2]: not a P-gp substrate; Papp A→B (P-gp (human MDR1)): 71.4 ± 0.65 ×10⁻⁶ cm/s; Papp B→A (P-gp (human MDR1)): 58.7 ± 1.45 ×10⁻⁶ cm/s; adverse effects [3]: no adverse effects reported
2 | C[C@@H]1CCN(c2nccc(-c3cnn4ncccc34)n2)C1 [Compound 29, 3-[2-[(3R)-3-Methylpyrrolidin-1-yl]pyrimidin-4-yl]pyrazolo[1,5-b]pyridazine] |  | 0.035 | 
3 | Cc1cnn2ncc(-c3ccnc(N(C)C)n3)c2c1 [Compound 63, N,N-Dimethyl-4-(5-methylpyrazolo[1,5-b]pyridazin-3-yl)pyrimidin-2-amine] |  | 0.027 | 
4 | CN(C)c1nccc(-c2c[nH]c3ncccc23)n1 [Compound 78] |  |  | selectivity by thermal stabilization (in words) [5]: cross-reacted with several additional kinases including the NAK kinases AAK1 and BMP2K
5 | CC1CCCN1c1nccc(-c2cnn3ncccc23)n1 (stereo not shown) [Compound 24, 3-[2-(2-Methylpyrrolidin-1-yl)pyrimidin-4-yl]pyrazolo[1,5-b]pyridazine] |  | 0.004 | 
6 | CN(c1nccc(-c2cnn3ncccc23)n1)C1CC1 [Compound 12, N-Cyclopropyl-N-methyl-4-pyrazolo[1,5-b]pyridazin-3-yl-pyrimidin-2-amine] |  | 0.013 | 
7 | c1cnn2ncc(-c3ccnc(N4CCC45COC5)n3)c2c1 [Compound 22, 1-(4-Pyrazolo[1,5-b]pyridazin-3-yl-pyrimidin-2-yl)-6-oxa-1-azaspiro[3.3]heptane] |  | 0.042 | 
8 | Cc1cccc(N(C)c2nccc(-c3cnn4ncccc34)n2)c1 [Compound 8b] |  |  | solubility [6]: 10 µg/mL (≈ 31.6 µM)
9 | C[C@H]1CCN(c2nccc(-c3cnn4ncccc34)n2)C1 [Compound 28, 3-[2-[(3S)-3-Methylpyrrolidin-1-yl]pyrimidin-4-yl]pyrazolo[1,5-b]pyridazine] |  | 0.050 | 
10 | N[C@H]1CCN(c2nccc(-c3cnn4ncccc34)n2)C1 [Compound 33, (3S)-1-(4-pyrazolo[1,5-b]pyridazin-3-yl-pyrimidin-2-yl)pyrrolidin-3-amine] |  | 0.027 | 
11 | Cc1nn2ncccc2c1-c1ccnc(N(C)C)n1 [Compound 60] |  |  | DYRK1A binding affinity (in words) (DYRK1A [4]; TR-FRET assay): no binding affinity
12 | CC(C)N(c1nccc(-c2cnn3ncccc23)n1)C1CC1 [Compound 13] |  |  | fold reduction in DYRK1A binding affinity (DYRK1A [4]; matched-molecular pairs 12 and 13): 10 fold
13 | F[C@@H]1CCN(c2nccc(-c3cnn4ncccc34)n2)C1 [Compound 31, 3-[2-[(3R)-3-Fluoropyrrolidin-1-yl]pyrimidin-4-yl]pyrazolo[1,5-b]pyridazine] |  | 0.011 | 
14 | CN(C)c1ncc(F)c(-c2cnn3ncccc23)n1 [Compound 95, 5-Fluoro-N,N-dimethyl-4-pyrazolo[1,5-b]pyridazin-3-yl-pyrimidin-2-amine] |  |  | kd (DYRK1A [7]): 0.06 s^–1

The next lines start with results.

Row | fold reduction in DYRK1A binding affinity (DYRK1A [4]; [8]) | Structure (SMILES) | S score (35) [1] | further results
15 | > 10 fold | Cc1ccc2c(-c3ccnc(N(C)C)n3)cnn2n1 [Compound 62] |  | 
16 | 10 fold | CN(C)c1cc(-c2cnn3ncccc23)ccn1 [Compound 113] |  | LE (DYRK1A [4]): 0.48; LLE (DYRK1A [4]): 4.31
17 | approximately 10 fold | CN(C)c1cccc(-c2cnn3ncccc23)n1 [Compound 111] |  | LE (DYRK1A [4]): 0.47; LLE (DYRK1A [4]): 3.79
18 | ~10 fold | Cc1ccnn2ncc(-c3ccnc(N(C)C)n3)c12 [Compound 64] |  | 
19 | ~2 fold | COc1ccnn2ncc(-c3ccnc(N(C)C)n3)c12 [Compound 66, 4-(4-Methoxypyrazolo[1,5-b]pyridazin-3-yl)-N,N-dimethyl-pyrimidin-2-amine] |  | 
20 | > 10 fold | COc1ccc2c(-c3ccnc(N(C)C)n3)cnn2n1 [Compound 65] |  | 
